Experimental data as given in patent EP2954896A1, “Small molecule inhibitors of the E3 Ligase Skp2 in depression and other diseases” (Max-Planck-Gesellschaft zur Förderung der Wissenschaften …, priority 2014, dated 2015).

Legend:
[1] = Chronic PAR treatment after chronic social defeat stress: physiological and neuroendocrine parameters; type: in vivo, mice
Text: Initially, wild-type and 51 KOmice were split into 2 x 2 groups (control WT, control FKBP51^-/-, defeat WT, defeat FKBP51^-/-) and subjected to the chronic stress procedure described below. After cessation of the stressor, groups were subdivided into vehicle-treated and paroxetine-treated animals, resulting in 8 groups (n = 7-13 per group). The treatment phase lasted for three weeks. The behavioral tests took place during the last week of the paroxetine treatment.
The CSDS paradigm lasted for 21 days. Briefly, the experimental mice were introduced into the home cage (45 cm x 25 cm) of a dominant resident mouse and defeated shortly after. When the defeat was achieved, the animals were separated by a wire mesh, preventing physical but allowing sensory contact for 24 h. Each day, stressed animals were defeated by another unfamiliar, dominant resident mouse in order to exclude a repeated encounter throughout the experiment. The daily defeat was performed between 11:00 and 16:00 h; varying starting times reduced the predictability of the stressor and therefore minimized a potential habituation effect. […] Both stress and control animals were handled daily during the stress procedure; body weight for all mice was assessed at the beginning of the experiment, after the cessation of the stress period, and on the day of killing. […]

[2] = test system: autophagy pathway markers; assay: Chronic PAR treatment after chronic social defeat stress: autophagy pathway marker protein levels; type: in vivo, mice; details: effect of deletion of FKBP51
Description: Western blot analysis was performed on eluates from ColPs or with protein extracts from cells or tissue. Protein extracts were obtained by lysing cells or tissue (prelysed as described in the paragraph before) in 62.5 mM Tris, 2% SDS and 10% sucrose, supplemented with protease (Sigma, P2714) and phosphatase (Roche, 04906837001) inhibitor cocktail. Samples were sonicated and heated at 95 °C for 5 min. Proteins were separated by SDS-PAGE and electro-transferred onto nitrocellulose membranes. Blots were placed in Tris-buffered saline, supplemented with 0.05% Tween (Sigma, P2287) and 5% non-fat milk for 1 h at room temperature and then incubated with primary antibody (diluted in TBS/0.05% Tween) overnight at 4 °C. […]

In the case of Fc1ccc([C@@H]2CCNC[C@H]2COc2ccc3c(c2)OCO3)cc1 [PAR, paroxetine], the “paroxetine-induced body weight increase” value ([1]; 51 KO versus wild-type mice) is reported as “significantly less affected”, the “paroxetine-induced body weight increase” value ([1]; basal conditions versus stressed animals) is reported as “significantly enhanced in mice under basal conditions compared to stressed animals” and the “effects on autophagy pathway markers Beclin1, Atg12, pAktS473/Akt and LC3BII/I” value [2] is reported as “abolished”.
